These results are taken from ChEMBL document CHEMBL5154646, “Structure-guided optimization of 1H-imidazole-2-carboxylic acid derivatives affording potent VIM-Type metallo-β-lactamase inhibitors” (Eur J Med Chem, 2022).

Assay [1] in a line: Inhibition of bacterial recombinant full length N-terminal-TEV-His6-tagged VIM-5 expressed in Escherichia coli Transetta using FC-5 as substrate preincubated with enzyme for 10 mins followed by substrate addition by fluorescence based analysis. Also noted: species or system Bacteria.
Assay [2] in a line: Inhibition of bacterial NDM-1 (1 to 270 residues) expressed in Escherichia coli Transetta (DE3) using FC-5 as substrate preincubated with enzyme for 10 mins followed by substrate addition by fluorescence based analysis. Further details: species or system Bacteria.
Assay [3] relates to Pseudomonas aeruginosa. As to the kind of experiment: Potentiation of meropenem-induced antibacterial activity against Pseudomonas aeruginosa 5621 expressing VIM-2 assessed as meropenem MIC at 100 ug/ml incubated for 18 to 20 hrs in presence of meropenem by CLSI based broth microtiter dilution method (reference value: 64 ug/ml). It is filed as functional. The settings on record: dose 100 µg/ml, time 18-20 hrs.

In assay [4] the test system is Escherichia coli. In words: Potentiation of meropenem-induced antibacterial activity against Escherichia coli C1541 expressing IMP-1 assessed as fold reduction in meropenem MIC at 10 ug/ml incubated for 18 to 20 hrs by CLSI based broth microtiter dilution method. Format: functional. The settings on record: dose 10 µg/ml; time 18-20 hrs.
Assay [5] can be described thus: Inhibition of bacterial recombinant full length C-terminal-TEV-His6-tagged VIM-1 expressed in Escherichia coli Transetta using FC-5 as substrate preincubated with enzyme for 10 mins followed by substrate addition by fluorescence based analysis. Further details: species or system Bacteria.
Assay [6] has as its system Escherichia coli. In words: Potentiation of meropenem-induced antibacterial activity against Escherichia coli C1541 expressing VIM-2 assessed as meropenem MIC at 10 ug/ml incubated for 18 to 20 hrs by CLSI based broth microtiter dilution method (reference value: 16 ug/ml). As to conditions: dose 10 µg/ml, time 18-20 hrs. It is filed as functional.
The nature of assay [7]: Inhibition of bacterial IMP-1 (1 to 246 residues) expressed in Escherichia coli Transetta (DE3) using FC-5 as substrate preincubated with enzyme for 10 mins followed by substrate addition by fluorescence based analysis. Also noted: species or system Bacteria.
Assay [8] concerns Pseudomonas aeruginosa. In words: Potentiation of meropenem-induced antibacterial activity against Pseudomonas aeruginosa W35 expressing VIM-2 assessed as meropenem MIC at 100 ug/ml incubated for 18 to 20 hrs in presence of meropenem by CLSI based broth microtiter dilution method (reference value: 64 ug/ml). Format: functional. The settings on record: dose 100 µg/ml, time 18-20 hrs.

Assay [9] has as its system Escherichia coli. In words: Potentiation of meropenem-induced antibacterial activity against Escherichia coli C1542 expressing VIM-2 assessed as meropenem MIC at 10 ug/ml incubated for 18 to 20 hrs by CLSI based broth microtiter dilution method (reference value: 16 ug/ml). The settings on record: dose 10 µg/ml, time 18-20 hrs. Format: functional.
For assay [10], the system named is Escherichia coli. As to the kind of experiment: Potentiation of meropenem-induced antibacterial activity against Escherichia coli C1580 expressing VIM-2 assessed as meropenem MIC at 10 ug/ml incubated for 18 to 20 hrs by CLSI based broth microtiter dilution method (reference value: 32 ug/ml). It is filed as functional. As to conditions: dose 10 µg/ml, time 18-20 hrs.

The subject of assay [11] is Pseudomonas aeruginosa. In words: Potentiation of meropenem-induced antibacterial activity against Pseudomonas aeruginosa 5621 expressing VIM-2 assessed as fold reduction in meropenem MIC at 100 ug/ml incubated for 18 to 20 hrs by CLSI based broth microtiter dilution method. It is filed as functional. As to conditions: dose 100 µg/ml; time 18-20 hrs.
Assay [12] has as its system Pseudomonas aeruginosa. In words: Potentiation of meropenem-induced antibacterial activity against Pseudomonas aeruginosa W35 expressing VIM-2 assessed as fold reduction in meropenem MIC at 100 ug/ml incubated for 18 to 20 hrs by CLSI based broth microtiter dilution method. Format: functional. As to conditions: dose 100 µg/ml; time 18-20 hrs.
The subject of assay [13] is Escherichia coli. As to the kind of experiment: Potentiation of meropenem-induced antibacterial activity against Escherichia coli C1541 expressing VIM-2 assessed as fold reduction in meropenem MIC at 10 ug/ml incubated for 18 to 20 hrs by CLSI based broth microtiter dilution method. It is filed as functional. The settings on record: dose 10 µg/ml; time 18-20 hrs.
For assay [14], the system named is Escherichia coli. As to the kind of experiment: Potentiation of meropenem-induced antibacterial activity against Escherichia coli C1541 expressing IMP-1 assessed as meropenem MIC at 10 ug/ml incubated for 18 to 20 hrs by broth microtiter dilution method (reference value: 32 ug/ml). As to conditions: dose 10 µg/ml, time 18-20 hrs. It is filed as functional.
Assay [15] relates to Escherichia coli. As to the kind of experiment: Potentiation of meropenem-induced antibacterial activity against Escherichia coli C1580 expressing VIM-2 assessed as fold reduction in meropenem MIC at 10 ug/ml incubated for 18 to 20 hrs by CLSI based broth microtiter dilution method. Format: functional. The settings on record: dose 10 µg/ml; time 18-20 hrs.
Assay [16] concerns Escherichia coli. As to the kind of experiment: Potentiation of meropenem-induced antibacterial activity against Escherichia coli C1542 expressing VIM-2 assessed as fold reduction in meropenem MIC at 10 ug/ml incubated for 18 to 20 hrs by CLSI based broth microtiter dilution method. As to conditions: dose 10 µg/ml; time 18-20 hrs. It is filed as functional.
Assay [17] is described as follows: Inhibition of bacterial VIM-2 (27 to 266 residues) expressed in Escherichia coli Transetta (DE3) using FC-5 as substrate preincubated with enzyme for 10 mins followed by substrate addition by fluorescence based analysis. Also noted: species or system Bacteria.

Each structure is given as a SMILES string. pIC50: −log10 of the molar value. Where only a bound is given, the exact number is not on record here.

Take `NCc1ccc(Cn2ccnc2C(=O)O)cc1`: the pIC50 is 4.74 in [1]; 3.78 in assay [2]; 5.07 in assay [5]; 4.12 in assay [7]; 5.41 in assay [17]. For the same molecule, the MIC in the assay on Pseudomonas aeruginosa [3] worked out at 32 µg/mL; with Escherichia coli [6], 8 µg/mL; in the assay with Pseudomonas aeruginosa [8] it was 16 µg/mL; with Escherichia coli [9], 16 µg/mL; in the assay on Escherichia coli [10], 16 µg/mL; in the assay on Escherichia coli [14], 32 µg/mL. Further, the “fold change (FC)” value in the assay on Escherichia coli [4] is 1; in the assay on Pseudomonas aeruginosa [11], 2; in the assay with Pseudomonas aeruginosa [12], 4; in the assay with Escherichia coli [13], 2; in the assay on Escherichia coli [15], 2; in the assay on Escherichia coli [16] it was 1.

Turning to `O=C(O)c1ncc(-c2ccccc2)n1Cc1ccccc1`, the pIC50 in assay [1] is 6.48; in [2], 4.23; in assay [5], 5.37; in assay [7], < 3.52; in [17], 7.82. Further, the figures for the “fold change (FC)” value in the assay with Escherichia coli [4], in the assay with Escherichia coli [13] and with Escherichia coli [16] were 1, 32 and 16, respectively. The MIC came to 0.5 µg/mL in the assay on Escherichia coli [6], 1 µg/mL in the assay on Escherichia coli [9] and 32 µg/mL in the assay on Escherichia coli [14].

On to `O=C(O)c1nccn1Cc1ccccc1`, for which the pIC50 in assay [1] is 5.81; in [2], 4.20; in assay [5], 5.38; in assay [7] it was 4.49; in [17], 6.32. The MIC was found to be 64 µg/mL with Pseudomonas aeruginosa [3]; 16 µg/mL in the assay with Escherichia coli [6]; 32 µg/mL in the assay on Pseudomonas aeruginosa [8]; 16 µg/mL in the assay on Escherichia coli [9]; 16 µg/mL in the assay on Escherichia coli [10]; 32 µg/mL with Escherichia coli [14]. Moreover, the “fold change (FC)” value in the assay with Escherichia coli [4] is 1; with Pseudomonas aeruginosa [11] it was 1; in the assay on Pseudomonas aeruginosa [12] it was 2; in the assay on Escherichia coli [13], 1; with Escherichia coli [15], 2; in the assay with Escherichia coli [16] it was 1.

`COc1ccc(Cn2ccnc2C(=O)O)cc1`: the pIC50 was 6.08 in [1]; 3.80 in assay [2]; 4.89 in [5]; 4.96 in [7]; 6.42 in assay [17]. For the same molecule, the MIC is 64 µg/mL in the assay on Pseudomonas aeruginosa [3]; 0.5 µg/mL in the assay on Escherichia coli [6]; 16 µg/mL in the assay with Pseudomonas aeruginosa [8]; < 0.25 µg/mL in the assay with Escherichia coli [9]; 1 µg/mL with Escherichia coli [10]; 32 µg/mL in the assay on Escherichia coli [14]. For the same molecule, the “fold change (FC)” value is reported as 1 in the assay with Escherichia coli [4]; 1 in the assay with Pseudomonas aeruginosa [11]; 4 with Pseudomonas aeruginosa [12]; 32 in the assay on Escherichia coli [13]; 32 in the assay on Escherichia coli [15]; >64 in the assay with Escherichia coli [16].

For `C=CCCn1ccnc1C(=O)O`, the pIC50 in assay [1] is 5.33; in assay [2], < 3.52; in assay [5], 4.83; in [7], < 3.52; in assay [17], 5.98. Further, the “fold change (FC)” value in the assay on Escherichia coli [4] is reported as 1; with Escherichia coli [13] it was 1; in the assay with Escherichia coli [15], 1; in the assay with Escherichia coli [16], 2. Besides, the MIC in the assay with Escherichia coli [6] was 16 µg/mL; in the assay on Escherichia coli [9], 8 µg/mL; in the assay with Escherichia coli [10], 32 µg/mL; with Escherichia coli [14] it was 32 µg/mL.

`C=CCCn1c(C)cnc1C(=O)O`: the pIC50 in assay [1] was 5.42; in [2] it was 3.84; in assay [5] it was 4.43; in assay [7], 4.31; in [17], 6.10. Moreover, the “fold change (FC)” value is 1 in the assay with Escherichia coli [4], 16 in the assay with Escherichia coli [13], 4 with Escherichia coli [15] and 8 in the assay with Escherichia coli [16]. For the same molecule, the MIC turned out to be 1 µg/mL with Escherichia coli [6], 2 µg/mL with Escherichia coli [9], 8 µg/mL in the assay on Escherichia coli [10] and 32 µg/mL with Escherichia coli [14].

As for `O=C(O)c1nccn1Cc1cccnc1Cl`, the pIC50 in assay [1] is 4.66; in assay [2], < 3.52; in [5], 4.52; in [7], < 3.52; in assay [17], 6.11.

In the case of `Cc1cn(Cc2ccccc2)c(C(=O)O)n1`, the pIC50 is 4.50 in assay [1]; < 3.52 in assay [2]; < 3.52 in assay [5]; 5.82 in assay [7]; 4.97 in assay [17].

As to `O=C(O)c1ncc[nH]1`, the pIC50 in assay [1] is 4.51; in assay [2], < 3.52; in assay [5], < 3.52; in assay [7], < 3.52; in assay [17] it was 4.18.

Turning to `O=C(O)c1ncc(C2CC2)n1Cc1ccccc1`, the pIC50 is 6.74 in [1]; 4.47 in assay [2]; 4.81 in [5]; 3.96 in assay [7]; 6.89 in assay [17].

Take `O=C(O)c1nccn1C1CCCC1`: the pIC50 in assay [1] is < 3.52; in [2], < 3.52; in assay [5], 4.11; in [7], < 3.52; in assay [17] it was 4.15.

`NCCCn1ccnc1C(=O)O`: the pIC50 in [1] was 4.17; in assay [2], < 3.52; in [5], < 3.52; in [7], < 3.52; in [17] it was 4.37.

As for `NCCn1ccnc1C(=O)O`, the pIC50 in assay [1], in assay [2], in [5], in assay [7] and in assay [17] was < 3.52 throughout.

Regarding `Cn1cc(Cn2ccnc2C(=O)O)cn1`, the pIC50 in [1] was 4.08; in assay [2], < 3.52; in assay [5] it was < 3.52; in [7] it was < 3.52; in assay [17] it was 4.48.

Turning to `Cc1ccc(Cn2ccnc2C(=O)O)cc1`, the pIC50 was 3.86 in assay [1]; < 3.52 in assay [2]; < 3.52 in assay [5]; < 3.52 in assay [7]; 5.46 in assay [17].

On to `O=C(O)c1nccn1CCO`, for which the pIC50 was < 3.52 in [1]; < 3.52 in [2]; < 3.52 in [5]; < 3.52 in assay [7]; 4.12 in assay [17].

For `CC(C)Cn1ccnc1C(=O)O`, the pIC50 in assay [1] was 5.15; in assay [2], < 3.52; in assay [5], 4.64; in assay [7], < 3.52; in [17], 5.96.

For `COCCn1ccnc1C(=O)O`, the pIC50 is 3.99 in assay [1]; < 3.52 in assay [2]; 3.57 in assay [5]; < 3.52 in assay [7]; 4.81 in assay [17].

Take `Cn1ccnc1C(=O)O`: the pIC50 in assay [1] is < 3.52; in [2], < 3.52; in assay [5], 3.64; in assay [7], < 3.52; in [17], < 3.52.

Regarding `O=C(O)c1nccn1Cc1ccc(C(F)(F)F)cc1`, the pIC50 in assay [1] was 6.55; in assay [2] it was < 3.52; in assay [5], 4.76; in [7] it was 4.27; in [17], 6.25.

For the molecule `CC(C)n1ccnc1C(=O)O`, the pIC50 in assay [1] was 3.88; in assay [2], < 3.52; in assay [5], 4.67; in assay [7] it was < 3.52; in [17], 5.00.

Regarding `O=C(O)c1nccn1Cc1ccc([N+](=O)[O-])cc1`, the pIC50 in assay [1] is 7.19; in assay [2], 3.94; in assay [5] it was 4.86; in assay [7], 4.52; in assay [17], 5.57.

For `O=C(O)c1nccn1C1CC1`, the pIC50 in assay [1] is 4.33; in [2], < 3.52; in assay [5], 4.53; in assay [7], < 3.52; in assay [17], 4.71.
